Data reported in US8778966B2, “Quinolinone derivatives as PARP and tank inhibitors” (Janssen Pharmaceutica, NV, priority 2007, dated 2014).

Columns and labels:
HCT116 cells = assay: Mitotic arrest assay on HCT116 cells (phospho-histone H3 Ser10); format: cell-based, human; details: lowest active dose; for minimal effective concentration: Homo sapiens, HCT-116, HCT116 cells, read-out: Mitotic arrest HCT116 LAD (converted)
Description: Phosphorylation of histone H3 is tightly correlated with chromosome condensation during both mitosis and meiosis. The assay is a cellular immunosorbent assay wherein the sole antibody is labelled with a detectable conjugate. The phospho-histone H3 (ser10) antibody detects endogenous levels of histone H3 only when phosphorylated at serine 10. […] In parallel with antibody detection, the nuclei of the cells are stained with Hoechst 33342 for cell-counting. Cells are detected and analysed using the InCell Analyzer 1000 from GE Healthcare. Since both the antibody-detection as well as the Hoechst-staining are in the nucleus, the dual area object intensity algorithm is used for analysing the wells.
All compounds tested were dissolved in DMSO and further dilutions were made in culture medium. Final DMSO concentrations never exceeded 0.1% (v/v).
HCT116 cells (supplier: ATCC) (human colon carcinoma cell line) were cultivated in Mc Coy's 5 A medium (supplier: Gibco) supplemented with 10% foetal calf serum (FCS), 2 mM L-glutamine and gentamycin at 37° C. in a humidified incubator with 5% CO2.
HCT116 cells were seeded at 20.000 cells per well in a 96 well plate (black/clear bottom, poly-D-lysine coated, supplier Greiner), cultured overnight to adhere to the bottom of the plate and treated with compound for 6 hours at 37° C. in a humidified incubator. After incubation, the medium was removed and cells were fixed using 100 μl/well formaldehyde (Accustain®, Formaline solution 10% neutral buffered, contains 4% formaldehyde w/v, supplier: Sigma) was added. After incubation for 15 minutes at room temperature, the formaldehyde was removed and cells were incubated with methanol (−20° C.) for 15 minutes at room temperature. After incubation, cells were washed once with phosphate-buffered saline (PBS —CaCl2, —MgCl2, suppier: Gibco)/0.05% Tween 20. The anti-phospho-histone H3 (Ser10) Alexa Fluor 488 antibody (supplier: Cell signalling) is used for detection of the cells inmitosis. The antibody was diluted 1/50 in 5% bovine serum albumins (BSA) and 50 μl/well was used for incubation overnight at room temperature in the dark.
A 1/2000 dilution of Hoechtst 33342 (10 mg/ml, supplier: Invitrogen) was made and 100 μl/well was added for at least 30 minutes before acquiring images. The absorbance at dual wavelengths of 360/480 nm was measured using the InCell Analyzer 1000 from GE Healthcare and the results were then analyzed.
For each experiment, controls (containing no drug) and a blank incubation (containing no cells or drugs) were run in parallel. Analysis was done in triplicate. Low cell count wells were invalidated. The blank value was subtracted from all control and sample values and divided by the standard deviation of the measurements. The compounds were considered active when the obtained value (sigma) was >5. Herein the effects of test compounds are expressed as the lowest dose giving a sigma value of >5 (LAD) (see table F-2).

PC3 cells = assay: EB1 Comet (microtubule disruption) assay; format: cell-based, human; details: 1 hour treatment; for minimal effective concentration: Homo sapiens, PC-3, 1 h, read-out: EB1 pLAC (converted)
Procedure, shortened: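 PC3 human prostate cancer cells exposed to compound for 1 h at 37 °C (0.6% DMSO final), methanol-fixed, immunostained for Eb1 and imaged at 20×. Value is the lowest active concentration (LAC): the concentration at which Eb1 foci are absent in at least 50% of treated cells.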

Structure (SMILES) | minimal effective concentration (HCT116 cells) [µM] | minimal effective concentration (PC3 cells) [µM] | EB1 pLAC (PC3 cells) | Mitotic arrest HCT116 LAD (HCT116 cells; HCT116 cells, the values are: pLAD (−log M lowest active dose))
CCc1cc2ccc(C(C)(C#N)Cc3cc(F)cc(Cl)c3)cc2[nH]c1=O (centres unmarked) [Compound 126] | 0.1 | 0.316 |  | 
CCc1cc2ccc(C(C)(C#N)Cc3cc(F)cc(C(F)(F)F)c3)cc2[nH]c1=O (centres unmarked) [Compound 127] | 0.316 | 1 |  | 
CCc1cc2ccc(C(C)(C#N)Cc3cc(F)cc(F)c3)cc2[nH]c1=O (centres unmarked) [Compound 128] | 0.1 |  | 7.5 | 
CCc1cc2ccc(C(C)(C#N)Cc3cccc(S(C)(=O)=O)c3)cc2[nH]c1=O (centres unmarked) [Compound 129] | 0.316 | 1 |  | 
CCc1cc2ccc(C(C)(C#N)Cc3cccc(Cl)c3F)cc2[nH]c1=O (centres unmarked) [Compound 130] | 0.1 | 0.1 |  | 
CCc1cc2ccc(C(C)(C#N)Cc3cccc(C)c3F)cc2[nH]c1=O (centres unmarked) [Compound 132] | 0.1 | 0.316 |  | 
CCc1cc2ccc(C(C)(C#N)Cc3cccc(C(F)(F)F)c3F)cc2[nH]c1=O (centres unmarked) [Compound 134] | 0.316 | 1 |  | 
CCc1cc2ccc(C(C)(C#N)Cc3c(Cl)cccc3Cl)cc2[nH]c1=O (centres unmarked) [Compound 135] | 0.2 | 1 |  | 
CCc1cc2ccc(C(C)(C#N)Cc3c(Cl)cccc3Br)cc2[nH]c1=O (centres unmarked) [Compound 136] | 0.316 | 1 |  | 
CCc1cc2ccc(C(C)(C#N)Cc3ccc(F)cc3F)cc2[nH]c1=O (centres unmarked) [Compound 137] | 0.316 | 1 |  | 
CCc1cc2ccc(C(C)(C#N)Cc3c(F)cccc3F)cc2[nH]c1=O (centres unmarked) [Compound 138] | 0.2 | 1 |  | 
CCc1cc2ccc(C(C)(C#N)Cc3ccc(F)cc3Br)cc2[nH]c1=O (centres unmarked) [Compound 139] | 0.1 | 0.316 |  | 
CCc1cc2ccc(C(C)(C#N)Cc3cccc(Cl)c3)cc2[nH]c1=O (centres unmarked) [Compound 140] | 0.316 | 0.1 |  | 
CCc1cc2ccc(C(C)(C#N)Cc3cc(Cl)cc(Cl)c3)cc2[nH]c1=O (centres unmarked) [Compound 141] | 0.1 | 0.1 |  | 
CCOc1ccccc1OCCC(C)(C#N)c1ccc2cc(CC)c(=O)[nH]c2c1 (centres unmarked) [Compound 142] | 0.316 | 1 |  | 
CCc1cc2ccc(C(C)(C#N)CCOc3cccc(C)c3)cc2[nH]c1=O (centres unmarked) [Compound 143] | 0.316 | 1 |  | 
CCc1cc2ccc(C(C)(C#N)CCOc3ccc(F)cc3)cc2[nH]c1=O (centres unmarked) [Compound 144] | 0.316 | 0.316 |  | 
CCc1cc2ccc(C(C)(C#N)CCOc3ccccc3)cc2[nH]c1=O (centres unmarked) [Compound 145] | 0.316 | 1 |  | 
CCc1cc2ccc(C(C)(C#N)CCOc3ccc(OC)cc3)cc2[nH]c1=O (centres unmarked) [Compound 147] | 0.316 | 1 |  | 
CCc1cc2ccc(C(C)(C#N)CCOc3ccccc3C)cc2[nH]c1=O (centres unmarked) [Compound 148] | 0.316 | 0.316 |  | 
CCc1cc2ccc(C(C)(C#N)CCOc3cccc(Cl)c3)cc2[nH]c1=O (centres unmarked) [Compound 151] | 0.316 | 1 |  | 
CCc1cc2ccc(C(C)(C#N)CCOc3ccc(Cl)cc3Cl)cc2[nH]c1=O (centres unmarked) [Compound 154] | 0.316 | 0.1 |  | 
CCc1cc2ccc(C(C)(C#N)CC3CN(C)c4ccccc4O3)cc2[nH]c1=O (centres unmarked) [Compound 156] | 0.316 | 1 |  | 
CCc1cc2ccc(C(C)(C#N)CCOc3ccc4ccccc4c3)cc2[nH]c1=O (centres unmarked) [Compound 157] | 0.316 | 0.1 |  | 
CCc1cc2ccc(C(C)(C#N)CCOc3cccc4ccccc34)cc2[nH]c1=O (centres unmarked) [Compound 158] | 0.1 | 0.316 |  | 
CCc1cc2ccc(C(C)(C#N)CCOc3ccc(Br)cc3)cc2[nH]c1=O (centres unmarked) [Compound 160] | 0.316 | 0.316 |  | 
CCc1cc2ccc(C(C)(C#N)CCOc3ccc(C#N)cc3)cc2[nH]c1=O (centres unmarked) [Compound 161] | 0.1 | 0.316 |  | 
CCc1cc2ccc(C(C)(C#N)Cc3cccc(CCC#N)c3)cc2[nH]c1=O (centres unmarked) [Compound 165] |  | 1 |  | 6.5
